Experimental data as given in PMC7870626, “Neurotoxicity and underlying cellular changes of 21 mitochondrial respiratory chain inhibitors” (Archives of Toxicology, 2021).
Like-named read-outs stand apart in the source and are kept apart here.

What was measured:
proteasome = assay: Proteasomal activity (KE3 assay) in LUHMES cells; type: cell-based, human; details: for Ratios of EC25 KE4/KE3 proteasomal: NeuriTox neurite EC25 relative to proteasomal activity EC25, LUHMES
Protocol: Activity of the proteasome was quantified as described in (Gutbier et al. [2018b]). Briefly, after exposure, culture medium was replaced by assay buffer containing a cell-permeable proteasomal substrate (MeOSuc-Gly-Leu-Phe-AMC, 25 µM (Bachem, Bubendorf, Switzerland) in HBSS). Its AMC-fluorescence (ex: 360 nm, em: 465 nm) increases with proteasomal activity and was monitored for 90 min. Background-corrected data were used for further analysis.

HepG2 cells = assay: HepG2-based respirometry, total cell respiration (earlier study); details: NeuriTox neurite EC25 relative to cell respiration EC25; respirometric data from HepG2-based assays ref van der Stel et al. 2020
LUHMES cells [1] = assay: NeuriTox test: neurite area and viability, 24 h; type: cell-based, human
Procedure, shortened: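 LUHMES cells differentiated 48 h were reseeded at 100,000 cells/cm^2 without cAMP/GDNF and treated 1 h later for 24 h; for 120 h exposure, treatment on d5 and d7 with endpoints on d10. Calcein-AM/Hoechst imaging gave viability (live/total cells) and neurite area (calcein area minus somatic area).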

SH-SY5Y cells = assay: Mitochondrial membrane potential (rhodamine 123), KE2 assay; type: cell-based, human; details: for EC25: Homo sapiens; for Ratios of EC25 KE4/KE2 MMP: NeuriTox neurite EC25 relative to SH-SY5Y MMP EC25
LUHMES cells [2] = assay: Intracellular ATP content after NeuriTox exposure; type: cell-based; details: Homo sapiens, 24 h
Procedure, shortened: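 LUHMES cells differentiated 48 h were re-seeded without cAMP/GDNF and exposed for 24 h starting 1 h after seeding; in the 120 h scenario, cells were dosed on d5 and d7 with read-out on d10. After imaging, intracellular ATP measured by CellTiterGlo 2.0 luminescence, background-corrected.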

LUHMES cells [3] = type: cell-based, human
Protocol: Cells were cultured and treated as described above for the NeuriTox assay. On d3, after 24 h treatment, culture medium was replaced by 33 µl/well 1 × Biospyder lysis buffer. After 15 min at room temperature, plates were sealed and frozen at -80 °C to complete lysis. Samples were analyzed at Bioclavis (Glasgow) using the TempO-Seq technique and the EU-ToxRisk v2.0 gene probe panel covering ca. 3000 genes (Yeakley et al. [2017]). All genes are listed in the supplementary excel file (containing also all gene regulations). Briefly, a 50 bp fragment of the target gene was amplified. The amplification step also introduced sample-specific barcodes. This allowed pooling of all samples and standard next-generation sequencing of the ensemble. Afterward, adapters were used to allocate the sequenced fragments to the correct samples. Finally, the alignment of all sequenced fragments (FASTQ files) for each sample to the collection of reference 50 bp oligonucleotides was performed for the quantification of reads per gene, also known as the read count values. In a pre-filtering step, samples with a total count < 0.2 million and genes with an average count < 1.5 were removed.
To correct for both read depth and RNA composition, the DESeq2′s median of ratios normalization was applied. The analysis of differentially expressed genes (DEG) of each treatment against the control group was done by the Wald test implemented in DESeq2/R (Love et al. [2014]), including an FDR correction for p-adjusted ≤ 0.05. […] A curve was fit through these concentration–response data to obtain EC10DEG. For comparability, all DEG data were normalized to a positive control. […] The EC10DEG was calculated using an established online open access BMC calculator (BMCeasy) (Krebs et al. [2020]).

[4] = Homo sapiens, NeuriTox exposure scheme, 24 h, read-out: LUHMES 24 h EC25 NA (neurite area) (converted)
[5] = Homo sapiens, NeuriTox exposure scheme, 24 h, read-out: LUHMES 24 h EC25 V (viability) (converted)
[6] = Homo sapiens, NeuriTox test, neurite outgrowth impairment, LUHMES 24 h, read-out: EC25 KE4 (AO) Neurite toxicity (converted)
[7] = SH-SY5Y differentiated 6 days, treated 24 h, rhodamine-123, read-out: pEC25 MMP (concentration where MMP was reduced by 25%) (converted)
[8] = NeuriTox exposure scheme, read-out: LUHMES 24 h EC25 ATP (converted)

Row | SMILES | Ratios of EC25 KE4/KE3 proteasomal (proteasome) | Ratios of EC25 KE4/KE1 total respiration (HepG2 cells) | Offset between neurite endpoint (LUHMES/SH-SY5Y) and U2OS viability (LUHMES cells [1]) | EC25 (LUHMES cells [1]; [4]) [µM] | EC25 (LUHMES cells [1]; [5]) [µM] | EC25 (LUHMES cells [1]; [6]) [µM] | EC25 (SH-SY5Y cells; [7]) [µM] | Ratios of EC25 KE4/KE2 MMP (SH-SY5Y cells) | EC25 (LUHMES cells [2]; [8]) [µM] | further results
1 | COc1cc2c(cc1OC)[C@@H]1C(=O)c3ccc4c(c3O[C@@H]1CO2)C=CC(C)(C)O4 [Deguelin] | 0.7 | 32 | > tenfold offset | 3.98 | 50.1 | 3.98 | 0.316 | 13 | 10 | EC50 (LUHMES cells [1]; Homo sapiens, read-out: EC10V (10% reduction of viability), NeuriTox assay, LUHMES 24 h): 13 µM; Number of DEGs triggered (LUHMES cells [3]; 13 µM, 24 h, LUHMES): 325; Regulation of the 13 deguelin-sensitive genes (in words) (LUHMES cells [3]; LUHMES 24 h): 11 out of 13 of these genes were not significantly regulated up to 0.8 µM deguelin, but clearly upregulated at 3.25 µM; log2FoldChange AARS (LUHMES cells [3]; gene AARS, 0.05 µM, 24 h, vs 0.1% DMSO): -0.69 log2; log2FoldChange AASDHPPT (LUHMES cells [3]; gene AASDHPPT, 0.05 µM, 24 h, vs 0.1% DMSO): 0.63 log2; log2FoldChange AATF (LUHMES cells [3]; gene AATF, 0.05 µM, 24 h, vs 0.1% DMSO): -0.08 log2; log2FoldChange ABCA1 (LUHMES cells [3]; gene ABCA1, 0.05 µM, 24 h, vs 0.1% DMSO): -2.12 log2; log2FoldChange ABCA6 (LUHMES cells [3]; gene ABCA6, 0.05 µM, 24 h, vs 0.1% DMSO): 0.47 log2
2 | COC(=O)N(OC)c1ccccc1COc1ccn(-c2ccc(Cl)cc2)n1 [Pyraclostrobin] | 0.7 | 100 |  | 25.1 | > 50.1 | 25.1 | 0.316 | 85 | 12.6 | log2FoldChange AARS (LUHMES cells [3]; gene AARS, 0.0856 µM, 24 h, vs 0.1% DMSO): -0.28 log2; log2FoldChange AASDHPPT (LUHMES cells [3]; gene AASDHPPT, 0.0856 µM, 24 h, vs 0.1% DMSO): 0.80 log2; log2FoldChange AATF (LUHMES cells [3]; gene AATF, 0.0856 µM, 24 h, vs 0.1% DMSO): -0.24 log2; log2FoldChange ABCA1 (LUHMES cells [3]; gene ABCA1, 0.0856 µM, 24 h, vs 0.1% DMSO): -1.33 log2; log2FoldChange ABCA6 (LUHMES cells [3]; gene ABCA6, 0.0856 µM, 24 h, vs 0.1% DMSO): 0.89 log2
3 | CCOCCc1ccc(OCCN=c2[nH]cnc(CC)c2Cl)c(C)c1C [Pyrimidifen] | 1.1 | 1260 |  | 15.8 | 39.8 | 15.8 | 0.794 | 21 | 20 | log2FoldChange AARS (LUHMES cells [3]; gene AARS, 0.08 µM, 24 h, vs 0.1% DMSO): -0.45 log2; log2FoldChange AASDHPPT (LUHMES cells [3]; gene AASDHPPT, 0.08 µM, 24 h, vs 0.1% DMSO): 0.72 log2; log2FoldChange AATF (LUHMES cells [3]; gene AATF, 0.08 µM, 24 h, vs 0.1% DMSO): -0.0132 log2; log2FoldChange ABCA1 (LUHMES cells [3]; gene ABCA1, 0.08 µM, 24 h, vs 0.1% DMSO): -1.62 log2; log2FoldChange ABCA6 (LUHMES cells [3]; gene ABCA6, 0.08 µM, 24 h, vs 0.1% DMSO): 0.65 log2
4 | C=C(C)[C@H]1Cc2c(ccc3c2O[C@@H]2COc4cc(OC)c(OC)cc4[C@@H]2C3=O)O1 [Rotenone] | 0.01 | 1.3 | > 100 fold |  |  |  |  | 2.1 |  | Potency on neurotoxicity (KE4/AO) relative to proteostasis (KE3) (proteasome; LUHMES): 100 times; Proteasomal function (in words) (proteasome; d2 LUHMES, 22 h incubation): reduced proteasome function at non-cytotoxic concentrations; EC25 (LUHMES cells [1]; Homo sapiens, 24 h, read-out: EC25 KE4 (AO) Neurite toxicity): 0.0794 µM; EC25 (LUHMES cells [1]; Homo sapiens, 24 h, read-out: LUHMES 24 h EC25 NA (neurite area)): 0.0794 µM; EC25 (LUHMES cells [1]; Homo sapiens, 24 h, read-out: LUHMES 24 h EC25 V (viability)): > 10 µM; EC25 (SH-SY5Y cells; SH-SY5Y, 24 h, read-out: pEC25 MMP (concentration where MMP was reduced by 25%)): 0.0398 µM; EC25 (LUHMES cells [2]; read-out: LUHMES 24 h EC25 ATP): 5.01 µM; log2FoldChange AARS (LUHMES cells [3]): -0.41 log2; log2FoldChange AASDHPPT (LUHMES cells [3]): 0.79 log2; log2FoldChange AATF (LUHMES cells [3]): -0.42 log2; log2FoldChange ABCA1 (LUHMES cells [3]): -0.98 log2; log2FoldChange ABCA6 (LUHMES cells [3]): -0.24 log2
5 | Cc1nc(C(F)(F)F)c(C(=O)Nc2c(Br)cc(OC(F)(F)F)cc2Br)s1 [Thifluzamide] | 1.1 | < 2 |  | 20 | 63.1 | 20 | > 10 |  | 20 | log2FoldChange AARS (LUHMES cells [3]; gene AARS, 0.15 µM, 24 h, vs 0.1% DMSO): -0.98 log2; log2FoldChange AASDHPPT (LUHMES cells [3]; gene AASDHPPT, 0.15 µM, 24 h, vs 0.1% DMSO): 0.89 log2; log2FoldChange AATF (LUHMES cells [3]; gene AATF, 0.15 µM, 24 h, vs 0.1% DMSO): -0.41 log2; log2FoldChange ABCA1 (LUHMES cells [3]; gene ABCA1, 0.15 µM, 24 h, vs 0.1% DMSO): -0.76 log2; log2FoldChange ABCA6 (LUHMES cells [3]; gene ABCA6, 0.15 µM, 24 h, vs 0.1% DMSO): 1.03 log2
